Experiment: in vivo
Conditions: female, Sprague-Dawley, rat, sc, 10 mg/kg
Method: The rats were housed in a holding room which operated on a 12-hr light/12-hr dark circadian cycle with free access to water and food.
Plasma samples were obtained by centrifugation, kept frozen at −80° C. and analyzed using a noncompartmental analysis model in PKSolver (Comput Methods Programs Biomed. 2010; 99(3):306-314).

Cc1nc2n(c(=O)c1CCN1CCC(c3noc4cc(F)ccc34)CC1)CCCC2 [Risperidone, risperidone]
AUC(0-inf): 13300 ng·h/mL | AUC(0-t): 13200 ng·h/mL | Cmax: 4510 ng/mL | drug released, indicated by AUC0-t (8 h): 100%

Source: patent US12285524B2, “Sustained-release pharmaceutical compositions comprising an antipsychotic drug and uses thereof” (priority 2018, dated 2025)
